Results on one compound are retold here after patent US20260097111A1, “ETHER LIPIDS FOR HYPERACTIVATION OF MAMMALIAN DENDRITIC CELLS” (priority 2022, published 2026).

Format in all cases: cell-based
Data set [1] relates to human monocyte-derived dendritic cells (moDCs). Description: IL-1β secretion by human moDCs treated with lipid and R848. The settings on record: human moDCs primed with R848 for 3 hours, then nigericin; FIG. 2B. Here is the method:
(§1) Human monocytes were isolated from Leukopaks purchased from Miltenyi using the StraightFrom Leukopak CD14 microbead kit (Miltenyi). Isolations were completed following manufacturer's instructions. Monocytes were then aliquoted and frozen in fetal bovine serum containing 10% dimethyl sulfoxide. For studies with monocyte-derived dendritic cell (moDC) cultures, monocytes were thawed and cultured in RPMI medium containing 10% FBS, 50 units/mL penicillin, […] streptomycin, 2 mM L-glutamine, 1 mM sodium pyruvate, […] beta-mercaptoethanol, 10 mM HEPES, and Gibco MEM non-essential amino acids (R10 media). To differentiate monocytes into moDCs, recombinant human GM-CSF (50 ng/mL) and IL-4 (25 ng/mL) were added to R10 media. Cells were cultured for 6 days with GM-CSF and IL-4, with an additional cell feeding with R10 containing GM-CSF and IL-4 on day 3.
Six days after differentiation, moDC were collected and counted. Cells were plated into 96-well flat-bottom plates at 1×10^5 cells/well. Cells were treated with or without 1 μg/mL R848 (final) and with or without a hyperactivating lipid (or vehicle control). In some experiments, MCC950, an inhibitor of the NLRP3 inflammasome, was added at a final concentration of 10 uM. In some experiments, nigericin, which causes NLRP3 inflammasome activation and subsequent pyroptosis, was used as a positive control at 20 uM. Cells and stimuli totaled a final volume of […].
Lipid stocks were then further diluted in PBS to treat cells.
(§2) After an overnight incubation, cells and culture supernatant were used for downstream readouts. One hundred and fifty microliters of cell supernatant were collected. Viability was measured using the CellTiter-Glo assay (Promega) which measures ATP content from cells. Fifty microliters of CellTiter-Glo reagent were added to 50 μL of cells. Luminescence was quantified on a SpectraMax m5e plate reader using an integration time of 500 milliseconds. Viability data were set relative to control conditions where cells were treated with only R848. To measure IL-1β secretion, the human IL-1β Lumit kit (Promega) was used to assay cell culture supernatant. Culture supernatant samples were incubated with enzyme-linked antibodies in a 384-well plate for 1 hour before addition of luminescent substrate. Samples were measured for luminescence with an integration time of 500 milliseconds. IL-1β concentrations of samples was determined by interpolation from a standard curve using 4-parameter logistic regression analysis. Studies were performed on three different human donor samples, and each biological condition was tested in triplicate. Graphed data represent means from each donor.
as §1, with “Human moDC Production. Human” for “Human”, “(Miltenyi) according to the” for “(Miltenyi). Isolations were completed following”, “To differentiate” for “For studies with”, “pyruvate, and” for “pyruvate,”, “beta-mercaptoethanol” for “beta-mercaptoethanol, 10 mM HEPES, and Gibco MEM non-essential amino acids”
Hyperactivating Lipid Formulation—Compound 10. Lipid stocks were formulated at 200 μg/mL lipid in 5% Kolliphor P407 (KP407) in PBS.

For data set [2], the system named is human moDCs. The data set is described as follows: Cell viability of human moDCs (CellTiter-Glo). The settings on record: human. How it is done:
as §2
Measurement of Cytokine Secretion and Cell Viability. After an overnight incubation, cells and culture supernatant were used for downstream readouts. One hundred and fifty microliters of cell culture supernatant were collected. Viability was measured using the CellTiter-Glo assay (Promega) which measures ATP content from cells. Fifty microliters of CellTiter-Glo reagent were added to 50 μL of cells. Luminescence was quantified on a SpectraMax m5e plate reader using an integration time of 500 milliseconds. Viability data were set relative to control conditions where cells were treated with only R848. To measure IL-1β secretion, the human IL-1β Lumit kit (Promega) was used. […] Samples were measured for luminescence with an integration time of 500 milliseconds. IL-1β concentrations of samples was determined by interpolation from a standard curve using 4-parameter logistic regression analysis. […]
On the technique in general: Cellular ATP, detected with luciferase, serves as a proxy for viable cell number.

The subject of data set [3] is human moDCs. Description: moDC viability by LDH release and CellTiter-Glo 2.0. Here is the method:
Monocyte Isolation, Storage, and Differentiation into moDC.
CellTiter-Glo 2.0 Cell Viability Assay. As an additional method to measure cell viability, CellTiter-Glo 2.0 Cell Viability Assay kit from Promega was used. CellTiter-Glo 2.0 reagent was used according to instructions of the manufacturer. Briefly, frozen reagent was thawed at 4° C. and aliquoted. Aliquots were stored at 4° C. in the dark. After removing 150 μL of the cell culture volume for use in other assays, cells were lysed with 50 μL/well CellTiter-Glo reagent by pipetting up and down. After incubating in the dark at RT for 10 min, samples were transferred to white opaque 96-well plates. Luminescence was measured for 500 ms/well using a Spectramax M3 plate reader. Luminescence values were normalized to the mean values of control samples and multiplied 100-fold to report values as percentage viability.
Background: Release of lactate dehydrogenase indicates damage to the cell membrane.

Regarding `CO[C@@H]1C[C@@H](C[C@H]2CC[C@H](C)[C@H]([C@@H](C)C(=O)O)O2)O[C@]2(O[C@](C)([C@H]3CC[C@@](C)([C@@H]4O[C@@H]([C@H]5O[C@@](O)(CO)[C@H](C)C[C@@H]5C)C[C@@H]4C)O3)C[C@H]2C)[C@@H]1C` [nigericin], the IL-1β secretion entry in data set [1] is listed as “IL-1β was produced”. For the same compound, the “decrease in cell viability” value in the data set with human moDCs [2] was “approximately 50%”. Further, in the data set on human moDCs [3], the “cell viability (CellTiter-Glo)” value is “below 2%” and the “cell viability (LDH release assay)” value was “below 75%”.
